Test results: ChEMBL document CHEMBL1147248, “A new acylated oleanane triterpenoid from Couepia polyandra that inhibits the lyase activity of DNA polymerase beta” (J Nat Prod, 2003)

Molecular target: DNA polymerase beta (Homo sapiens, UniProt P06746)
Test: Inhibition of DNA polymerase beta lyase activity by deoxyribose phosphate excision assay

`CC1(C)CC[C@]2(C(=O)O)CC[C@]3(C)C(=CC[C@@H]4[C@@]5(C)CC[C@H](O)C(C)(C)[C@@H]5CC[C@]43C)[C@@H]2C1` [OLEANOLIC_ACID] and `CC(=O)OC[C@@]1(C)[C@@H]2CC[C@]3(C)[C@H](CC=C4[C@@H]5CC(C)(C)CC[C@]5(C(=O)O)[C@@H](OC(C)=O)C[C@]43C)[C@@]2(C)CC[C@@H]1OC(C)=O` are within 1.5-fold of each other in IC50: 8.8 µM for the first, 13 µM for the second.

Compared with `CC[C@H](CC[C@@H](C)[C@H]1CC[C@H]2[C@@H]3CC=C4C[C@@H](O)CC[C@]4(C)[C@H]3CC[C@]12C)C(C)C` [BETA-SITOSTEROL], `CC[C@H](/C=C/[C@@H](C)[C@H]1CC[C@H]2[C@@H]3CC=C4C[C@@H](O)CC[C@]4(C)[C@H]3CC[C@]12C)C(C)C` [STIGMASTEROL] is 1.7-fold higher in IC50: 26.3 µM for the first, 43.4 µM for the second. The first is the more potent here.
